Reference: paper PMC10002828, “FRET assay for live-cell high-throughput screening of the cardiac SERCA pump yields multiple classes of small-molecule allosteric modulators” (Research Square, 2023)
Counter-ions that a name gives are not always drawn. Like-named read-outs stand apart in the source and are kept apart here.

What was measured:
SERCA [1] = conditions: cited from earlier work
[2] = biological target: T1, human two-color SERCA2a (2CS) biosensor (Homo sapiens, UniProt P16615); assay: FLT/FRET concentration-response of two-color SERCA2a (2CS) biosensor in live HEK293 cells; assay type: cell-based
T1 construct: expressed in transfected cells
T1 sequence (P16615 1-997 isoform P16615-2): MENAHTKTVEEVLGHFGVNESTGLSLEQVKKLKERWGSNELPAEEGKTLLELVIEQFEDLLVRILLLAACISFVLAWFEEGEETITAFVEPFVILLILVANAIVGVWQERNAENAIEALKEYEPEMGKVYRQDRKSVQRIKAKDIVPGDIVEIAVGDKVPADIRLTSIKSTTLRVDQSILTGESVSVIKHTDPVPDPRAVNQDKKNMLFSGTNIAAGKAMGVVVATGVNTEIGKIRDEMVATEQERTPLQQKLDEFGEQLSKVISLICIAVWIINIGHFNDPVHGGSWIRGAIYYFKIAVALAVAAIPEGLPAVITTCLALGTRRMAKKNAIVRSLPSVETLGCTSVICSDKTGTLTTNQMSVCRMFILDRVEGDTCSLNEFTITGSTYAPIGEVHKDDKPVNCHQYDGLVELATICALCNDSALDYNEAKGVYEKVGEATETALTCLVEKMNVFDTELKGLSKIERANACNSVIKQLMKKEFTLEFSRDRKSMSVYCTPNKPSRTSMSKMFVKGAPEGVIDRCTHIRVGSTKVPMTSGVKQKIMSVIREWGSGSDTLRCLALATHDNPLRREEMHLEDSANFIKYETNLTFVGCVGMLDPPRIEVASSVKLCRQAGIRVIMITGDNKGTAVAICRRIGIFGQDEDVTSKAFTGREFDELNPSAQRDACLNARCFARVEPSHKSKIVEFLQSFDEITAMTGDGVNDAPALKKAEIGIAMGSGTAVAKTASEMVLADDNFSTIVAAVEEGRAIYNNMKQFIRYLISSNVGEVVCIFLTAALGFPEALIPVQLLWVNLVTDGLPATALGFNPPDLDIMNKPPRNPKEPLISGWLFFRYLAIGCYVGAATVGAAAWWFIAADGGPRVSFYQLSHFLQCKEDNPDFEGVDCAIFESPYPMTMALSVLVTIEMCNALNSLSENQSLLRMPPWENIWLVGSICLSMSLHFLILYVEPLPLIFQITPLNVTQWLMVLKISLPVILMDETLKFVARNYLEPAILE
Experimental: FRET CRC assay plates (0.78–100 μM compound range) with at least ten different compound concentrations were made by adding the appropriate volume of compound or DMSO into black 384 well plates (Greiner Bio-One) using a Mosquito HV (SPTLabTech, United Kingdom). Subsequent ATPase and Ca^2+-transport CRC assay plates (0–50 μM compound range) with repurchased compounds were made in a similar manner using with the Echo 550 (Beckman Coulter) using either 384 well transparent plates (Greiner Bio-One) or black-walled plates with transparent bottoms (Greiner Bio-One), respectively.
On each day of screening, cells were harvested, washed three times with PBS, and centrifuged at 300g for 5min. Cells were filtered using a 70μm cell strainer and diluted to 1–2 × 10^6 cells/mL. Cell concentration and viability were assessed using the Cell countess (Invitrogen) and trypan blue assay. During assays, cells were constantly and gently stirred using a magnetic stir bar at room temperature, keeping the cells in suspension and evenly distributed to avoid clumping. Cells were dispensed at 5μL or 50μL per well into assay plates (dispensed into 40 assay plates, each containing 1536 wells) pre-plated with either compound or DMSO using a Multdrop Combi liquid dispenser (Thermo Fisher Scientific, Pittsburg, PA) and sealed until needed. […] The FRET HTS screen was performed over two days with a custom HTS fluorescence lifetime plate reader (FLT-PR) and spectral plate reader (SUPR) provided by Photonic Pharma LLC (Minneapolis, MN)[18]. […]
A detailed description of the high-throughput fluorescence lifetime plate reader (FLT-PR) and spectral unmixing plate reader (SUPR), manufactured by Fluorescence Innovations Inc and provided by Photonic Pharma, LLC was described previously[18],[21]. Briefly, for lifetime measurement with the FLT-PR, the observed donor-fluorescence waveform, F (t) was fit by a convolution of the measured instrument response function (IRF) and a single-exponential decay to obtain the lifetime (τ) of the donor fluorophore[57] in the absence (τD) and presence (τDA) of the acceptor as described in Eq. (1): 1 F(t)=Ae^(−t/τ) FRET efficiency (E) was determined as the fractional decrease of donor FLT in the absence and in the presence of acceptor as in Eq. (2): 2 E=1−τDA/τD E was determined in the presence and absence of compound and normalized relative to E of the DMSO control. For spectral detection with the SUPR, the observed fluorescence emission spectrum F(λ) was fit by least-squares minimization of a linear combination of component spectra for donor (D), acceptor (A), cellular autofluorescence (C) and water Raman (W) as described previously. […]

SERCA2a [3] = biological target: T2, SERCA2a (Sus scrofa, UniProt P11607); assay: NADH-linked enzyme-coupled Ca2+-ATPase assay in pig cardiac SR vesicles; assay type: biochemical; conditions: for functional category (Ca2+-ATPase and Ca2+-transport, VMAX and VMID): based on both Ca2+-ATPase and Ca2+-transport assays; for Ca2+-ATPase increase at VMID (ΔVMID): midpoint Ca2+; for Ca2+-ATPase increase at VMAX (ΔVMAX): saturating Ca2+
T2 construct: SERCA2a in native SR preparations; from tissue; host or cells: porcine left ventricular tissue (cardiac SR vesicles)
T2 sequence (P11607 1-997 isoform P11607-2): as the sequence (P16615 1-997 isoform P16615-2) above, with R371K, N403K, S538P, L570M, H576N, D667E, A713S, S865T, I889V, V963L counted along it
Experimental: (§1) Cardiac SR vesicles were isolated from fresh porcine left ventricular tissue using differential centrifugation of the homogenized tissue as previously described. The SR vesicles were flash-frozen and stored at −80°C until needed.
Functional assays were performed using porcine cardiac SR vesicles. An enzyme-coupled, NADH-linked ATPase assay was used to measure SERCA ATPase activity in 384-well microplates. Each well contained 50 mM MOPS (pH 7.0), 100 mM KCl, 1 mM EGTA, 0.2 mM NADH, 1 mM phosphoenol pyruvate, 10 IU/mL of pyruvate kinase, 10 IU/mL of lactate dehydrogenase, 7 μM of the calcium ionophore A23187 (Sigma), and CaCl2 was added to set free [Ca^2+] to three different concentrations. The Ca^2+-ATPase were measured at VMAX (saturating, pCa 5.4), VM!D (subsaturating, midpoint, pCa 6.2), and basal (non-activating, pCa 8.0) [Ca^2+]. 10 μg/mL of SR vesicle, calcium, compound (0.048 to 50 μM), and assay mix were incubated for 20 min at room temperature before measurement of functional assays with each of the 18 hit compounds, because a shorter incubation time than the FRET live-cell assays achieved optimal responses. The assay was started upon the addition of MgATP at a final concentration of 5 mM (total volume to 80 μL), and absorbance was read in a SpectraMax Plus microplate spectrophotometer from Molecular Devices (Sunnyvale, CA) at 340nm.
(§2) SERCA2a ATPase (or Ca-transport) activity at pCa 8.0 was subtracted from pCa 5.4 and pCa 6.2 values. The % effect ATPase (or Ca-transport transport) activity was normalized to the DMSO only (or 2CS in the absence of compound), and then were plotted against [Ca], and the curves were fitted using the Hill function, where V is the initial ATPase rate (or fluorescence rate), VMAX is the ATPase (or Ca^2+-transport) at saturating [Ca^2+], and EC50 or pKCa, or VM!D is the apparent Ca^2+ dissociation constant as described previously ATPase (or Ca^2+-transport) at (Midpoint Ca^2+)[44].

SERCA2a [4] = biological target: T2, SERCA2a; assay: Fluo-4 oxalate-supported Ca2+-transport assay in pig cardiac SR vesicles; assay type: biochemical; conditions: for coupling ratio (CR), VMAX (Ca2+-transport) / VMAX (Ca2+-ATPase): at VMAX, control 0.66; for Ca2+-transport increase at VMID (Δ): midpoint Ca2+; for Ca2+-transport increase at VMID (Δ) / C10, Ca2+-transport at VMID: pCa 6.2; for Ca2+-transport change at VMAX (Δ, increase positive): saturating Ca2+
Experimental: as §1
Ca^2+-transport assays were performed with similar porcine SR samples as in the Ca^2+-ATPase assays described above. The compound effect on the Ca^2+-transport activity of SERCA2a was determined using an oxalate-supported assay in which the change in fluorescence in a Ca-sensitive dye, Fluor-4, was determined as previously described. A buffered solution containing 50 mM MOPS (pH 7.0), 100 mM KCl, 30 mg/mL sucrose, 1 mM EGTA, 10 mM potassium oxalate, 2 μM Fluo-4, 30 μg/mL porcine cardiac SR vesicles, CaCl2 calculated to reach the free [Ca^2+] (pCa 8.0, 6.2, and 5.4), and compound (0.048 to 50μM) was dispensed into 384-well black walled, transparent bottomed plates (Greiner Bio-One) containing the tested small molecule and incubated at 22°C for 20 minutes while covered and protected from light. To start the reaction, MgATP was added to a final concentration of 5 mM, and the decrease in 485-nm excited fluorescence of Fluo-4 was monitored at 520 nm for 15 min using a FLIPR Tetra (Molecular Devices, San Jose, CA).
as §2

SERCA [5] = test system: SERCA; design: method as in PMID 32397211; conditions: assay not named; read-out: EC50 (affinity); cited from earlier work
[6] = design: method as in PMID 21878191; conditions: human usage; cited from earlier work
[7] = 2CS biosensor, live HEK293 cells, CRC 0.78–100 μM compound, read-out: FRET EC50

## CCCCN(CC)c1nc(C)nc2c1c(C)cn2-c1c(C)cc(C)cc1C [CP-154526]
SERCA [1]
  effect on SERCA: increases the apparent Ca^2+ affinity of SERC2a

## O=C(c1ccc(-c2ccc(O)cc2)nc1)N1CCC(CCc2ccccc2)CC1 [Compound 6]
[2]; 2CS biosensor, normalized FRET E, read-out: FRET half maximal effect (EC50), Figure 6 legend
  EC50: 7.1 ± 0.2 µM
SERCA2a [3]
  functional category (Ca2+-ATPase and Ca2+-transport, VMAX and VMID): activates Ca^2+-ATPase with divergent effects on Ca^2+-transport
SERCA2a [3]; pCa 6.2
  Ca2+-ATPase increase at VMID (ΔVMID): 30%
  C10, Ca2+-ATPase at VMID: 8.7 µM
SERCA2a [3]; pCa 5.4
  C10 (compound concentration that changes function by 10%), Ca2+-ATPase at VMAX: 9.7 µM
SERCA2a [3]; pCa 5.4, read-out: EC50, Ca2+-ATPase at VMAX
  EC50: 11 µM
SERCA2a [3]; pCa 6.2, read-out: EC50, Ca2+-ATPase at VMID
  EC50: 11 µM
SERCA2a [4]
  coupling ratio (CR), VMAX (Ca2+-transport) / VMAX (Ca2+-ATPase): 0.48
  Ca2+-transport increase at VMID (Δ): 17%
  C10, Ca2+-transport at VMID: 4 µM
SERCA2a [4]; pCa 5.4
  C10, Ca2+-transport at VMAX: 15 µM
  Ca2+-transport inhibition at VMAX: 21%

## Cc1ccc2cccc(NC(=O)c3ccc(OC(C)C)cc3)c2n1 [CDN1163]
SERCA [1]
  effect on SERCA: stimulates Ca^2+ transport

## C/C=C(/C)C(=O)O[C@H]1C(C)=C2[C@H]([C@@H]1OC(=O)CCCCCCC)[C@@](C)(OC(C)=O)C[C@H](OC(=O)CCC)[C@@]1(O)[C@H]2OC(=O)[C@@]1(C)O [thapsigargin]
SERCA [5]
  EC50: ~0.0075 µM

## OCC1(Cc2ccccc2F)CCCN(Cc2cc3c(cc2Cl)OCO3)C1 (stereo not drawn) [Compound 12]
[2]; assay not given, probably FRET EC50 of Table 1, read-out: EC50 (affinity), compared with thapsigargin
  EC50: 3.8 µM
SERCA2a [3]; pCa 5.4
  Ca2+-ATPase inhibition at VMAX: 93%
SERCA2a [3]; pCa 6.2
  Ca2+-ATPase inhibition at VMID: 90%
SERCA2a [4]
  Ca2+-transport inhibition: completely inhibited

## O=C(c1cc(O)c(O)c([N+](=O)[O-])c1)c1ccccc1F [Ro 41–0960]
SERCA [1]
  effect on SERCA: increases SERCA maximal activity in high Ca^2+

## CCn1nc(C)c(CN2CCCC(Nc3ccc(C(C)C)cc3)C2)c1C (stereo not drawn) [Compound 7]
[2]; [7]
  EC50: 0.3 µM
SERCA2a [3]
  functional category (Ca2+-ATPase and Ca2+-transport, VMAX and VMID): activates both Ca^2+-ATPase and Ca^2+-transport
SERCA2a [3]; pCa 6.2
  Ca2+-ATPase increase at VMID (ΔVMID): 7%
  C10, Ca2+-ATPase at VMID: 25 µM
SERCA2a [3]; pCa 5.4
  C10 (compound concentration that changes function by 10%), Ca2+-ATPase at VMAX: 25 µM
  Ca2+-ATPase increase at VMAX (ΔVMAX): 14%
SERCA2a [4]
  coupling ratio (CR), VMAX (Ca2+-transport) / VMAX (Ca2+-ATPase): 0.74
  Ca2+-transport increase at VMID (Δ): 19%
  C10, Ca2+-transport at VMID: 21 µM
SERCA2a [4]; pCa 5.4
  C10, Ca2+-transport at VMAX: 14 µM
  Ca2+-transport change at VMAX (Δ, increase positive): 24%

## COc1ccc(C(=O)C2CCCN(Cc3nc(-c4ccc(F)cc4)cs3)C2)c(OC)c1 (stereo not drawn) [Compound 8]
[2]; [7]
  EC50: 4.9 µM
SERCA2a [3]
  functional category (Ca2+-ATPase and Ca2+-transport, VMAX and VMID): activates both Ca^2+-ATPase and Ca^2+-transport
SERCA2a [3]; pCa 6.2
  Ca2+-ATPase increase at VMID (ΔVMID): 31%
  C10, Ca2+-ATPase at VMID: 7.8 µM
SERCA2a [3]; pCa 5.4
  C10, Ca2+-ATPase at VMAX: 4.3 µM
  Ca2+-ATPase increase at VMAX (ΔVMAX): 49%
SERCA2a [4]
  coupling ratio (CR), VMAX (Ca2+-transport) / VMAX (Ca2+-ATPase): 0.4
  Ca2+-transport increase at VMID (Δ): 7%
SERCA2a [4]; pCa 5.4
  C10, Ca2+-transport at VMAX: 25 µM
  Ca2+-transport change at VMAX (Δ, increase positive): 10%

## C[C@]12CCC(=NOCCN)C[C@@H]1C(=O)C[C@@H]1[C@@H]2CC[C@]2(C)C(=O)CC[C@@H]12 [istaroxime, (E,Z)-3-((2-aminoethoxy)imino) androstane-6,17-dione hydrochloride)]
SERCA [1]
  effect on SERCA: stimulates SERCA activity
[6]
  clearance rate: high clearance rate
  gastrointestinal absorption: poor gastrointestinal absorption
  metabolic transformation: extensive metabolic transformation
